According to patent publication US10653780B2, “Amino lipids and methods for the delivery of nucleic acids” (ARBUTUS BIOPHARMA CORPORATION, priority 2008, dated 2020):
Read-outs that look alike come from different tables or passages of the source. Marks after values point to notes of the source that are not given here.

Columns and labels:
[1] = test system: Factor VII (FVII); conditions: for FVII ED50: Table 11; for survival: 15 mg/kg dose, mice; for fold less active than DLinDMA: mouse FVII model
Source text: It is well established that in vivo RNAi silencing of specific hepatocyte proteins can be achieved following intravenous (i.v.) administration of siRNA's encapsulated in, or associated with, select nanoparticles designed for intracellular delivery. […] In this Example, rational design in combination with in vivo screening were applied to systematically modify the structure of DLinDMA and identify molecular features that enhance or reduce cationic lipid potency. More than 30 lipids were synthesized and incorporated into nucleic acid-lipid particles, i.e., lipid nanoparticles (LN) encapsulating an siRNA (LN-siRNA) targeting Factor VII (FVII), a blood clotting component synthesized and secreted by hepatocytes that is readily measured in serum. LN-siRNA systems were prepared using the same process, lipid molar ratios and particle size to minimize effects on activity resulting from formulation characteristics other than the cationic lipid. Each formulation was administered as a single bolus injection over a range of doses enabling an estimate of the siRNA dose required to reduce FVII serum protein concentrations by 50% after 24 h (ED50).
FVII activity was evaluated in FVII siRNA-treated animals at 24 hours after intravenous (bolus) injection in C57BL/6 mice or 48 hours after intravenous (bolus) injection in SD rats. Six to 8 week old, female C57Bl/6 mice were obtained from Charles River Laboratories and acclimated for one week prior to use in studies. Animals were held in a pathogen-free environment and all procedures involving animals were performed in accordance with the guidelines established by the Canadian Council on Animal Care.
LN-siRNA systems containing Factor VII siRNA were diluted to the appropriate concentrations in sterile phosphate buffered saline immediately prior to use, and the formulations were administered intravenously via the lateral tail vein in a total volume of 10 ml/kg. After 24 h, animals were anaesthetised with Ketamine/Xylazine and blood was collected by cardiac puncture and processed to serum (Microtainer Serum Separator Tubes; Becton Dickinson, Franklin Lakes, N.J., USA). Serum was tested immediately or stored at −70° C. for later analysis for serum Factor VII levels.
FVII was measured using a commercially available kit (Biophen FVII Kit™; Aniara Corp., Mason, Ohio), following the manufacturer's instructions at a microplate scale. FVII reduction was determined against untreated control animals, and the results were expressed as % Residual FVII. Five dose levels (0.1, 0.3, 0.5, 1.0, and 3.0 mg/kg) were typically used.
Serum Factor VII levels were determined using the colorimetric Biophen VII assay kit (Anaira, USA). Briefly, serially diluted pooled control serum (200%-3.125%) and appropriately diluted plasma samples from treated animals were analyzed using the Biophen VII kit according to manufacturer's instructions in 96-well, flat bottom, non-binding polystyrene assay plates (Corning, Corning, N.Y.) and absorbance at 405 nm was measured. A calibration curve was generated using the serial diluted control serum and used to determine levels of Factor VII in serum from treated animals.
Initial studies were performed in eight to 10 week old, female C57BL/6 mice in two stages. In the first stage, the activity associated with the benchmark lipid DLinDMA was compared to the activity associated with modified forms of DLinDMA.

[2] = Pharmacokinetic and liver analysis of Cy-3 labeled siRNA in LN-siRNA systems; format: in vivo
Source text: A fluorescently labeled siRNA (Cy-3 labeled luciferase siRNA, Alnylam Pharmaceuticals) was used to measure the siRNA content in plasma and liver after iv administration of LN-siRNA systems. The measurements were done by first extracting the Cy3-siRNA from the protein-containing biological matrix and then analyzing the amount of Cy-3 label in the extract by fluorescence. Two extraction methods were used, a chloroform/methanol mixture for the plasma samples and a commercial phenol/chloroform mixture (Trizol® reagent) with the tissue samples.
For plasma, blood was collected in EDTA-containing Vacutainer tubes and centrifuged at 1000×g for 10 min at 4-8° C. to isolate the plasma. The plasma was transferred to an eppendorf tube and either assayed immediately or stored in a −30° C. freezer. An aliquot of the plasma (100 μL maximum) was diluted to 500 μL with PBS (145 mM NaCl, 10 mM phosphate, pH 7.5), methanol (1.05 mL and chloroform (0.5 mL) was added, and the sample vortexed to obtain a clear, single phase solution. Water (0.5 mL) and chloroform (0.5 mL) was then added and the resulting emulsion sustained by mixing periodically for a minimum of 3 minutes. The mixture was centrifuged at 3000 rpm for 20 minutes and the top aqueous phase containing the Cy-3-label transferred to a new test tube. The fluorescence of the solution was measured using an SLM Fluorimeter at an excitation wavelength of 550 nm (2 nm bandwidth) and emission wavelength of 600 nm (16 nm bandwidth). A standard curve was generated by spiking aliquots of plasma from untreated animals with the Cy-3-siRNA containing formulation (0 to 15 μg/mL), and the sample processed as indicated above.
For liver, sections (400-500 mg) of tissue from saline-perfused animals was accurately weighed and homogenized in 1 mL of Trizol using Fastprep tubes. An aliquot of the homogenate (typically equivalent to 50 mg of tissue) was transferred to an eppendorf tube and additional Trizol added to 1 mL final. Chloroform (0.2 mL) was added, and the solution was mixed and incubated for 2-3 min before being centrifuged for 15 min at 12,000×g. An aliquot (0.5 mL) of the top Cy-3-containing aqueous phase was diluted with 0.5 mL of PBS and the fluorescence of the sample measured as described above.
The correlation between levels of siRNA delivered to the liver and FVII reduction was determined by encapsulating Cy-3 labeled siRNA in the selection of LN-siRNA systems covering a spectrum of in vivo activities shown in Table 8. Cy-3 fluorescence was measured in plasma and liver tissue 0.5 and 3.0 h post injection.

[3] = In situ determination of apparent pKa using TNS fluorescence titration
[4] = Table 3, siRNA dose reducing serum FVII protein by 50% at 24 h, single i.v. bolus, PFV LN-siRNA 40/10/40/10
[5] = Table 6, siRNA dose reducing serum FVII protein by 50% at 24 h, PFV LN-siRNA 40/10/40/10
[6] = Table 4, siRNA dose reducing serum FVII protein by 50% at 24 h, PFV LN-siRNA 40/10/40/10
[7] = Table 8, FVII ED50 of the LN-siRNA system
[8] = Table 7, siRNA dose reducing serum FVII protein by 50% at 24 h, PFV LN-siRNA 40/10/40/10
[9] = siRNA dose reducing serum FVII protein by 50% at 24 h, PFV LN-siRNA 40/10/40/10
[10] = Table 5, siRNA dose reducing serum FVII protein by 50% at 24 h, PFV LN-siRNA 40/10/40/10

## 1,2-Dilinoleyloxy-3-(2-N,N-dimethylamino) ethoxypropane [DLin-EG-DMA]
[1]; [4]
  ED50: 5 to 12 mg/kg

## 1,2-Dilinoleyloxy-3-trimethylaminopropane chloride [DLinTMA.Cl]
[1]; [4]
  ED50: 2 to 5 mg/kg

## 2,2-dilinoleyl-4-N-morpholino-[1,3]-dioxolane [DLin-K-MA]
[1]; 15 mg/kg maximum dose
  FVII activity at maximum dose tested: inactive
[1]; [5]
  ED50: >15 mg/kg
[1]
  FVII ED50: >15 mg/kg

## CCCCC/C=C\C/C=C\CCCCCCCCOC(COC(=O)CCCCCCC/C=C\C/C=C\CCCCC)CN(C)C (centres unmarked) [DLin-2-DMAP, 1-Linoleoyl-2-linoeyloxy-3-dimethylaminopropane]
[2]; 0.5 h post injection
  Liver Cy-3 siRNA: 20.5 % injected dose
  Plasma Cy-3 siRNA: 17.5 % injected dose
[2]; 3.0 h post injection
  Liver Cy-3 siRNA: 2.5 % injected dose
  Plasma Cy-3 siRNA: 8.8 % injected dose
[1]; [6]
  ED50: 5 to 12 mg/kg
[1]; [7]
  ED50: 5 to 12 mg/kg

## CCCCC/C=C\C/C=C\CCCCCCCCNC(=O)OCC(CN(C)C)OC(=O)NCCCCCCCC/C=C\C/C=C\CCCCC (centres unmarked) [DLin-C-DAP, 1,2-Dilinoleylcarbamoyloxy-3-dimethylaminopropane]
[2]; 0.5 h post injection
  Liver Cy-3 siRNA: 28.5 % injected dose
  Plasma Cy-3 siRNA: 69.4 % injected dose
[2]; 3.0 h post injection
  Liver Cy-3 siRNA: 13.5 % injected dose
  Plasma Cy-3 siRNA: 19.0 % injected dose
[1]; [6]
  ED50: 12 to 25 mg/kg
[1]; [7]
  ED50: 12 to 25 mg/kg

## CCCCC/C=C\C/C=C\CCCCCCCCC1(CCCCCCCC/C=C\C/C=C\CCCCC)OCC(CN(C)C)CO1 [DLin-K6-DMA, 2,2-dilinoleyl-5-dimethylaminomethyl-[1,3]-dioxane]
[1]; [8]
  ED50: ~0.3 mg/kg
[1]
  FVII ED50: ~0.3 mg/kg
[3]
  pKa: 6.2

## CCCCC/C=C\C/C=C\CCCCCCCCC1(CCCCCCCC/C=C\C/C=C\CCCCC)OCC(CN(C)C)O1 (stereo not drawn) [DLin-K-DMA (+)]
[1]; [9]
  ED50: ~0.3 mg/kg

## CCCCC/C=C\C/C=C\CCCCCCCCC1(CCCCCCCC/C=C\C/C=C\CCCCC)OCC([N+](C)(C)C)O1.[Cl-] (centres unmarked) [DLin-K-TMA.Cl, 2,2-Dilinoleyl-4-trimethylamino-[1,3]-dioxolane Chloride]
[1]; 5 mg/kg
  FVII activity: No activity observed
[1]; 5 mg/kg, data not shown
  body weight: significant weight loss
[1]; 5 mg/kg, listed as DLin-K-TMA
  FVII activity: No activity was observed
[1]
  survival: lethal
[1]; listed as DLin-K-TMA
  survival: did not survive
[1]; [5]
  ED50: >5^a mg/kg

## CCCCC/C=C\C/C=C\CCCCCCCCC1(CCCCCCCC/C=C\C/C=C\CCCCC)OC(CN(C)C)C(CN(C)C)O1 (centres unmarked) [DLin-K^2-DMA, 2,2-Dilinoleyl-4,5-bis(dimethylaminomethyl)-[1,3]-dioxolane]
[1]; [5]
  ED50: ~0.4 mg/kg

## CCCCC/C=C\C/C=C\CCCCCCCCC(CCCCCCCC/C=C\C/C=C\CCCCC)OC(=O)CCN(C)C [DLin-M-DMA, Dilinoleylmethyl 3-Dimethylaminopropionate]
[1]; [8]
  ED50: ~0.7 mg/kg
[1]; [9]
  ED50: ~0.7 mg/kg

## CCCCC/C=C\C/C=C\CCCCCCCCSCC(CN(C)C)SCCCCCCCC/C=C\C/C=C\CCCCC (centres unmarked) [DLin-S-DMA, 1 ,2-Dilinoleylthio-3-dimethylaminopropane]
[1]; [6]
  ED50: 12 to 25 mg/kg
[1]; [7]
  ED50: 12 to 25 mg/kg

## CCCCC/C=C\C/C=C\CCCCCCCCN(CCCCCCCC/C=C\C/C=C\CCCCC)CC(O)CO (centres unmarked) [DLinAP]
[1]; [10]
  ED50: 5 to 12 mg/kg
[1]; [7]
  ED50: 5 to 12 mg/kg
[1]; [9]
  ED50: 5 to 12 mg/kg

## CCCCC/C=C\C/C=C\CCCCCCCCOCC(COC(=O)CN(C)C)OCCCCCCCC/C=C\C/C=C\CCCCC (centres unmarked) [DLinDAC, 1,2-Dilinoleyloxy-3-(dimethylamino) acetoxypropane]
[1]; [4]
  ED50: 5 to 12 mg/kg
[1]; [7]
  ED50: 12 to 25 mg/kg

## CCCCC/C=C\C/C=C\CCCCCCCCOCC(CN1CCOCC1)OCCCCCCCC/C=C\C/C=C\CCCCC (centres unmarked) [DLinMA, 1,2-Dilinoleyloxy-3-morpholinopropane]
[1]; [4]
  ED50: 12 to 25 mg/kg
[1]; [7]
  ED50: 12 to 25 mg/kg
[1]; [9]
  ED50: 12 to 25 mg/kg

## CCCCC/C=C\C/C=C\CCCCCCCCOCC(CN1CCN(C)CC1)OCCCCCCCC/C=C\C/C=C\CCCCC (centres unmarked) [DLinMPZ, 1,2-Dilinoleyloxy-3-(N-methylpiperazino) propane]
[1]; [4]
  ED50: 2 to 5 mg/kg
[1]; [7]
  ED50: 2 to 5 mg/kg

## CCCCC/C=C\C/C=C\CCCCCCCC(=O)OCC(C[N+](C)(C)C)OC(=O)CCCCCCC/C=C\C/C=C\CCCCC.[Cl-] (centres unmarked) [DLinTAP.Cl]
[1]; [10]
  ED50: >25 mg/kg

## CCCC/C=C\CCCCCCCC(=O)OCC(CN(C)C)OC(=O)CCCCCCC/C=C\CCCC (centres unmarked) [DMDAP]
[1]; 10 mg/kg maximum dose
  FVII activity at maximum dose tested: no activity was observed
[1]; [10]
  ED50: >10 mg/kg

## CCCCCCCC/C=C\CCCCCCCCNC(=O)OCC(CN(C)C)OC(=O)NCCCCCCCC/C=C\CCCCCCCC (centres unmarked) [DO-C-DAP]
[1]; 10 mg/kg maximum dose
  FVII activity at maximum dose tested: inactive
[1]; [10]
  ED50: >10 mg/kg

## CCCCCCCC/C=C\CCCCCCCCC1(CCCCCCCC/C=C\CCCCCCCC)OCC(CN(C)C)O1 (centres unmarked) [DO-K-DMA]
[1]; [8]
  ED50: ~1.0 mg/kg
[1]; [9]
  ED50: ~1.0 mg/kg

## CCCCCCCC/C=C\CCCCCCCC(=O)OCC(CN(C)C)OC(=O)CCCCCCC/C=C\CCCCCCCC (centres unmarked) [DODAP, 1,2-dioleoyl-3-dimethylammonium propane, reference compound]
[1]; [10]
  ED50: >25 mg/kg
[1]
  fold less active than DLinDMA: more than 25 fold

## CCCCCCCC/C=C\CCCCCCCCOCC(CN(C)C)OCCCCCCCC/C=C\CCCCCCCC (centres unmarked) [DODMA, reference compound]
[1]; [10]
  ED50: 2 to 5 mg/kg
[1]
  fold less active than DLinDMA: 2 to 5 fold

## CCCCCCCC/C=C\CCCCCCCC(=O)OCC(C[N+](C)(C)C)OC(=O)CCCCCCC/C=C\CCCCCCCC.[Cl-] (centres unmarked) [DOTAP.Cl, 1,2-Dioleyloxy-3-trimethylaminopropane chloride salt, reference compound]
[1]; [10]
  ED50: >25 mg/kg

## CCCCCCCCCCCCCCCCCCC1(CCCCCCCCCCCCCCCCCC)OCC(CN(C)C)O1 (centres unmarked) [DS-K-DMA]
[1]; [8]
  ED50: ~8.0 mg/kg
[1]; [9]
  ED50: ~8.0 mg/kg
